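Following 48 hours of exposure in 96-well plates, responses at five concentrations were used to interpolate endpoints linearly. At the GI50, growth is halved.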 Active and inactive are the calls of the source. Cut-off read from the data, not from the text of the source: active = GI50 up to about 1.1 µM and inactive = higher.
Tests used:
Assay in all cases: NCI-60 cell line screen, 48 h
[1] = system: 786-0
[2] = system: A549
[3] = system: ACHN
[4] = system: CAKI-1
[5] = system: COLO 205
[6] = system: EKVX
[7] = system: HCC 2998
[8] = system: OVCAR-8
[9] = system: RPMI-8226
[10] = system: SF-295
[11] = system: SK-MEL-28
[12] = system: SN12C
[13] = system: SNB-78
[14] = system: UACC-62
[15] = system: UO-31
[16] = system: OVCAR-4
[17] = system: SR
[18] = system: MCF7
[19] = system: MDA-MB-231
[20] = system: NCI/ADR-RES

Measured: GI50

NC(=O)N1N=C2c3ccccc3CC[C@@H]2C1c1ccccc1 (stereo partly drawn)
inactive: [1] > 100 µM | [2] > 100 µM | [3] > 100 µM | [4] > 100 µM | [5] > 100 µM | [6] > 100 µM | [7] > 100 µM | [8] > 100 µM | [9] 63.2 µM | [10] > 100 µM | [11] > 100 µM | [12] > 100 µM | [13] > 100 µM | [14] > 100 µM | [15] > 100 µM

CN(C)C(=O)OC(Cn1cncn1)c1ccc(Cl)cc1Cl (stereo not drawn)
inactive: [1] > 100 µM | [2] > 100 µM | [3] > 100 µM | [4] > 100 µM | [5] > 100 µM | [6] > 100 µM | [7] > 100 µM | [16] > 100 µM | [8] > 100 µM | [9] > 100 µM | [10] > 100 µM | [11] > 100 µM | [12] > 100 µM | [13] > 100 µM | [14] > 100 µM | [15] > 100 µM

Cc1nn(-c2nc3ccccc3s2)c2c1C(=O)c1ccccc1-2
inactive: [1] 80.4 µM | [2] > 100 µM | [3] > 100 µM | [5] > 100 µM | [6] > 100 µM | [7] > 100 µM | [16] 26.9 µM | [9] > 100 µM | [10] > 100 µM | [11] > 100 µM | [12] > 100 µM | [13] > 100 µM | [17] > 100 µM | [14] > 100 µM | [15] > 100 µM

CC(=O)OC1COC(N2C(=O)C(=O)c3c(C)cc(Cl)nc32)C(OC(C)=O)C1OC(C)=O (stereo not drawn)
inactive: [1] > 100 µM | [2] > 100 µM | [3] > 100 µM | [4] > 100 µM | [5] > 100 µM | [6] > 100 µM | [16] > 100 µM | [8] > 100 µM | [9] > 100 µM | [10] > 100 µM | [11] > 100 µM | [12] > 100 µM | [13] > 100 µM | [17] 83.6 µM | [14] > 100 µM | [15] > 100 µM

COc1ccc(/C=C2\CN(C)Cc3c2nc(N)nc3-c2ccc(OC)cc2)cc1
inactive: [1] > 100 µM | [2] 48.4 µM | [3] > 100 µM | [4] > 100 µM | [5] 95.7 µM | [6] 33.6 µM | [7] 16.6 µM | [8] 49.3 µM | [9] 24.6 µM | [10] > 100 µM | [11] > 100 µM | [12] > 100 µM | [13] > 100 µM | [14] 87.1 µM | [15] > 100 µM

CCCC1(CC(=O)O)OCCc2c1[nH]c1ccccc21 (stereo not drawn) [PRODOLIC ACID]
inactive: [1] > 100 µM | [2] > 100 µM | [3] > 100 µM | [4] > 100 µM | [5] > 100 µM | [6] > 100 µM | [7] > 100 µM | [16] > 100 µM | [8] > 100 µM | [9] > 100 µM | [10] > 100 µM | [11] > 100 µM | [12] > 100 µM | [13] > 100 µM | [14] > 100 µM | [15] > 100 µM

CCCCCCCCCCCCCC(=S)N/C=C/OC
inactive: [1] 30.8 µM | [2] 37.4 µM | [3] 27.5 µM | [5] 27.1 µM | [6] 31 µM | [7] 19 µM | [16] 32.1 µM | [8] 38 µM | [9] 23.6 µM | [10] 30.2 µM | [11] 41.7 µM | [12] 34.9 µM | [13] 48 µM | [14] 20.7 µM | [15] 31 µM

COc1ccc(C2Oc3ccc(O)cc3[C@@H]2C)cc1OC (stereo partly drawn)
inactive: [1] > 100 µM | [2] > 100 µM | [3] > 100 µM | [4] 18.9 µM | [5] > 100 µM | [6] > 100 µM | [7] > 100 µM | [16] 97.7 µM | [8] > 100 µM | [9] 4.05 µM | [10] > 100 µM | [11] > 100 µM | [13] > 100 µM | [14] > 100 µM | [15] 63.1 µM

CC(=O)N/N=C1\CC(C)(C)C2CCC1C2 (stereo not drawn)
inactive: [1] > 100 µM | [2] > 100 µM | [3] > 100 µM | [4] > 100 µM | [5] > 100 µM | [6] > 100 µM | [16] > 100 µM | [8] > 100 µM | [9] > 100 µM | [10] > 100 µM | [11] > 100 µM | [12] > 100 µM | [13] > 100 µM | [14] > 100 µM | [15] > 100 µM

O=C(/C=N/c1ccccc1[S-])c1ccco1.O=C(/C=N/c1ccccc1[S-])c1ccco1.[Zn+2]
inactive: [1] 8.3 µM | [2] 3.98 µM | [3] 5.46 µM | [4] 10 µM | [5] 17.5 µM | [7] 10 µM | [8] 6.37 µM | [10] 3.78 µM | [11] 10.7 µM | [12] 10 µM | [13] 16.8 µM | [17] 6.58 µM | [14] 15.6 µM | [15] 2.99 µM

COc1cccc(C2=NC(C(C)C)CO2)c1 (stereo not drawn)
inactive: [1] > 100 µM | [2] > 100 µM | [3] > 100 µM | [4] > 100 µM | [5] > 100 µM | [6] > 100 µM | [7] > 100 µM | [16] > 100 µM | [8] > 100 µM | [9] > 100 µM | [10] > 100 µM | [11] > 100 µM | [12] > 100 µM | [13] > 100 µM | [14] > 100 µM | [15] 85.7 µM

CCC[N+](C)(C)CCCNC(=O)c1c(O)c2ccccc2[nH]c1=O
inactive: [1] > 100 µM | [2] 46.3 µM | [3] > 100 µM | [4] > 100 µM | [5] > 100 µM | [6] > 100 µM | [7] > 100 µM | [18] > 100 µM | [19] > 100 µM | [20] > 100 µM | [16] > 100 µM | [8] > 100 µM | [9] > 100 µM | [10] > 100 µM | [11] > 100 µM | [12] > 100 µM | [17] > 100 µM | [14] > 100 µM | [15] 53.1 µM

CCOC(=O)/C=C(\C)Sc1cc(O)c2ccccc2c1O
inactive: [1] 19.8 µM | [2] 28.1 µM | [3] 13.8 µM | [4] 23.5 µM | [5] 17.3 µM | [6] 27.9 µM | [7] 8.97 µM | [18] 13.9 µM | [19] 16.4 µM | [20] 25.3 µM | [16] 16.1 µM | [8] 16.5 µM | [9] 24.8 µM | [10] 24.6 µM | [11] 13.2 µM | [12] 29.2 µM | [17] 7.62 µM | [14] 31.1 µM | [15] 4.51 µM

C[Si](C)(C)c1ccc(CC2(Cc3ccc([Si](C)(C)C)cc3)CCNC2)cc1
inactive: [1] 1.77 µM | [2] 2.29 µM | [3] 3.18 µM | [4] 2.39 µM | [5] 1.8 µM | [6] 6.75 µM | [7] 2.11 µM | [16] 2.1 µM | [8] 1.85 µM | [10] 2.52 µM | [11] 2.33 µM | [12] 1.71 µM | [13] 3.13 µM | [14] 2.02 µM | [15] 2.48 µM

O=S(=O)(O)c1ccc(Nc2ccnc3ccccc23)cc1
inactive: [1] > 100 µM | [2] > 100 µM | [3] > 100 µM | [4] > 100 µM | [5] > 100 µM | [6] > 100 µM | [7] > 100 µM | [18] > 100 µM | [19] > 100 µM | [20] > 100 µM | [16] > 100 µM | [8] > 100 µM | [9] > 100 µM | [10] > 100 µM | [11] > 100 µM | [12] > 100 µM | [17] > 100 µM | [14] > 100 µM | [15] > 100 µM

CC(C)(C)OC(=O)CN1CCNCCN(CC(=O)OC(C)(C)C)CCNCC1
inactive: [1] > 100 µM | [2] 82 µM | [3] > 100 µM | [4] > 100 µM | [5] > 100 µM | [6] > 100 µM | [7] > 100 µM | [18] > 100 µM | [19] > 100 µM | [20] > 100 µM | [16] > 100 µM | [8] > 100 µM | [9] 70 µM | [10] > 100 µM | [11] > 100 µM | [12] > 100 µM | [17] 26.9 µM | [14] > 100 µM | [15] > 100 µM

Cc1ccc([N+](=O)[O-])cc1S(=O)(=O)Nc1ccc(C2=NOC(c3ccccc3)C2)cc1 (stereo not drawn)
inactive: [1] 13.8 µM | [2] 6.89 µM | [3] 13.5 µM | [4] 7.1 µM | [5] 6.7 µM | [6] 17.7 µM | [7] 9.04 µM | [18] 3.25 µM | [19] 8.99 µM | [20] 3.04 µM | [16] 1.32 µM | [8] 18.3 µM | [9] 4.7 µM | [10] 3.17 µM | [11] 18.7 µM | [12] 12.9 µM | [17] 1.31 µM | [14] 3.85 µM | [15] 18.2 µM

From ChEMBL document CHEMBL1201862, “PubChem BioAssay data set” (2004)
